Data set [1] relates to testosterone-stimulated flank organs. Briefly: Effect on testosterone-stimulated flank organs in the castrated hamster (topical). Format: in vivo. As to conditions: for Flank Organ Cholest., Mean ± S.E. / Flank Organ Diameter, Mean ± S.E. / Flank Organ Wet Wgt, Mean ± S.E. / Flank Organ Develop. (Med. Score): topical; for Flank Organ Cholest., Mean ± S.E. / Flank Organ Diameter, Mean ± S.E. / Flank Organ Wet Wgt, Mean ± S.E.: 14 times over 2 weeks; for Flank Organ Develop. (Med. Score): degree of pigmentation, score 0 to 4, 2 weeks; for Inhibition of testosterone-stimulated increase in the cholesterol contact of the flank organs (in words) / Reduction of testosterone-stimulated increase in flank organ diameter (in words) / Suppression of flank organ development, degree of pigmentation (in words) / Wet weight of the flank organs (in words): topical with 1 μg TP. The method, then:
(§1) The effect of 17α-(n-propyl)androst-4-en-17β -ol-3-one and 17α-(n-butyl)androst-4-en-17β -ol-3-one on testosterone-stimulated flank organs and on endocrine organs in the castrated hamster was determined as follows:
(§2) Castrated hamsters were treated on both flank organs topically with testosterone propionate (TP) equivalent to 1 microgram of testosterone with or without the test agents dissolved in 5 microliters of absolute ethanol 14 times over a 2 weeks period. The hamsters were 4-5 weeks of age (55 to 75 grams body weight) and were caged individually. After the end of the two-weeks period, the development (degree of pigmentation) and diameter of the flank organs were assessed and measured, and the flank organs were punched out with an 8 mm cork borer for determination of wet weight and cholesterol content. Endocrine organ weights (adrenal gland, seminal vesicle and thymus gland) were also determined.
In the first table TP refers to testosterone propionate, Compd. I refers to 17α-(n-propyl)androst-4-en-17β -ol-3-one, Compd. II refers to 17α-(n-butyl)androst-4-en-17β -ol-3-one, and n refers to the number of animals in each group.

Data set [2] concerns steroid 5α-reductase. As to conditions: cited from earlier work; for Anti-androgenic activity by inhibitory effects on steroid 5α-reductase activity: laboratory animals.
The next data set concerns acne or sebum secretion. As to conditions: tried topically; cited from earlier work.
Data set [3] deals with endocrine organs (adrenal gland, seminal vesicle and thymus gland). Briefly: Endocrine organ weights in the castrated hamster after topical treatment. Format: in vivo. As to conditions: for Endocr. Organ Wgts, Mean ± S.E.: Adrenal Gland / Endocr. Organ Wgts, Mean ± S.E.: Seminal Vesicle / Endocr. Organ Wgts, Mean ± S.E.: Thymus Gland: topical, 2 weeks; for Weights of the endocrine organs (in words): topical application, castrated hamsters. Here is the method: as §1, §2

Data set [4] is described as follows: Standard test procedures for androgenic, estrogenic or anabolic properties. Format: in vivo.
The nature of data set [5]: Progestational activity (Clauberg assay). In kind it is in vivo. Here is the method:
When 17α-(n-propyl)androst-4-en-17β -ol-3-one was administered intramuscularly, its progestational activity was about one-fortieth that of progesterone.

Data set [6] is described as follows: Subcutaneous and oral toxicity (LD50) in the rat. As to conditions: in vivo. The source says:
(§3) 17α-(n-Propyl)androst-4-en-17β -ol-3-one is conveniently prepared by a three-step synthesis from 3β -acetoxyandrost-5-en-17-one in an over-all yield of 43%. The first step is a Grignard reaction with allylmagnesium bromide to give 17α-allylandrost-5-ene-3β,17β-diol in 81% yield. The second step is a hydrogenation over 10% palladium-on-carbon catalyst to afford 17α-propylandrost-5-ene-3β, 17β-diol in 88% yield. The third step is an Oppenauer oxidation with aluminum isopropoxide to give the desired 17α-(n-propyl)androst-4-en-17β -ol-3-one in 60.5% yields.

Data set [7] concerns flank organ sebaceous glands. Nature of the data set: Daily topical application to normal, sexually mature male hamsters. Format: in vivo, hamster. As to conditions: 200 μg daily, 6 weeks.
Data set [8] has as its system steroid 5α-reductase. Nature of the data set: Inhibition of conversion of testosterone to dihydrotestosterone, minced hamster flank organ, tritiated testosterone. Format: biochemical. The method, then: The effectiveness of 17α-(n-propyl)androst-4-en-17β -ol-3-one in inhibiting the conversion of testosterone dihydrotestosterone by the enzyme steroid 5α-reductase was measured using minced hamster flank organ as a source of the enzyme and tritiated testosterone as a substrate. At concentrations of one-hundredth molar and one-thousandth molar, 17α-(n-propyl)androst-4-en-17β -ol-3-one was 100% and 53% inhibitory, respectively.

Data set [9] is described as follows: Serum testosterone levels after topical application to sexually mature hamsters. Format: in vivo, hamster. As to conditions: 200 μg per flank organ topically, 3 weeks. Here is the method:
When 17α-(n-propyl)androst-4-en-17β -ol-3-one was topically applied to sexually mature hamsters at 200 μg per flank organ for a period of 3 weeks, serum testosterone levels were unchanged compared with untreated controls.

The nature of data set [10]: Subcutaneous and oral toxicity (LD50) in the mouse. As to conditions: in vivo.
Description: as §3

For data set [11] the following is noted: in vivo; cited from earlier work.
Setting [12] is: 200 μg topically with 1 μg testosterone propionate, castrated hamsters.
The mark [13] stands for this setting: castrated hamsters, 1 μg TP alone.
Setting [14] is: Group III: 1 μg TP + 100 μg test compound.
Where [15] appears, read: Groups IV, V: 1 μg TP + 200 μg test compound.
Setting [16] is: oral, read-out: Oral toxicity (LD50).
[17] abbreviates: sc, subcutaneous, read-out: Subcutaneous toxicity (LD50).
[18] abbreviates: castrated hamsters, 1 μg TP + 100 μg test compound.
Setting [19] is: castrated hamsters, 1 μg TP + 200 μg test compound.

For `CCC[C@]1(OC=O)CC[C@H]2[C@@H]3CCC4=CC(=O)CC[C@]4(C)[C@H]3CC[C@@]21C` [17β-Formyloxy-17α-(n-propyl)androst-4-en-3-one], in data set [1] (setting [12]), the “Activity relative to the parent alcohol, by cholesterol content” value was “about 40%”; the “Flank organ development (in words)” value is “no effect”; the “Flank organ size (in words)” value is “slightly reduced flank organ size”; the “Reduction of flank organ cholesterol content” value was determined as 32%. The “Reduction of flank organ wet weight” value in [1] (setting [12]) is given as “about 13%”.
With `COC(=O)[C@H]1CC[C@H]2[C@@H]3CCC4=CC(=O)CC[C@]4(C)[C@H]3CC[C@]12C` [methyl ester thereof], in the data set with steroid 5α-reductase [2], the “Anti-androgenic activity by inhibitory effects on steroid 5α-reductase activity” value was “exhibit anti-androgenic activity”.
As for `CC(=O)O[C@]1(C(C)=O)CC[C@H]2[C@@H]3C=C(Cl)C4=CC(=O)[C@@H]5C[C@@H]5[C@]4(C)[C@H]3CC[C@@]21C` [cyproterone acetate, 6-chloro-1α , 2α-methylene-4,6-pregnadien-17α-o1-3,20-dione acetate], the “Effectiveness against acne or sebum secretion” value with acne or sebum secretion is reported as “not to be effective”.
For `CCC(=O)O[C@H]1CC[C@H]2[C@@H]3CCC4=CC(=O)CC[C@]4(C)[C@H]3CC[C@]12C` [TP, testosterone propionate, reference compound], in data set [3] (Group II: 1 μg TP alone), the “Endocr. Organ Wgts, Mean ± S.E.: Adrenal Gland” value was found to be 11.8±0.81 Mg; the “Endocr. Organ Wgts, Mean ± S.E.: Seminal Vesicle” value came to 35.0±2.9 Mg; the “Endocr. Organ Wgts, Mean ± S.E.: Thymus Gland” value is recorded as 55.2±6.5 Mg. For the same molecule, in data set [1] (setting [13]), the “Flank Organ Cholest., Mean ± S.E.” value stood at 238 ± 26 µg; the “Flank Organ Diameter, Mean ± S.E.” value is listed as 4.30±0.15 mm; the “Flank Organ Wet Wgt, Mean ± S.E.” value worked out at 42.0 ± 1.2 mg. In addition, the “Flank Organ Develop. (Med. Score)” value in data set [1] (1 μg TP alone) was determined as 4.0.
For the molecule `CCC[C@]1(O)CC[C@H]2[C@@H]3CCC4=CC(=O)CC[C@]4(C)[C@H]3CC[C@@]21C` [Compd. I, 17α-(n-propyl)androst-4-en-17β -ol-3-one], the “Androgenic, estrogenic or anabolic properties” value in [4] is reported as “devoid of any significant androgenic, estrogenic or anabolic properties”. In data set [3] (setting [14]), the “Endocr. Organ Wgts, Mean ± S.E.: Adrenal Gland” value turned out to be 12.1±0.32 Mg; the “Endocr. Organ Wgts, Mean ± S.E.: Seminal Vesicle” value is reported as 39.5±2.9 Mg; the “Endocr. Organ Wgts, Mean ± S.E.: Thymus Gland” value is listed as 58.3±6.7 Mg. In [3] (setting [15]), the “Endocr. Organ Wgts, Mean ± S.E.: Adrenal Gland” value came to 11.6±0.48 Mg; the “Endocr. Organ Wgts, Mean ± S.E.: Seminal Vesicle” value amounted to 34.0±2.6 Mg; the “Endocr. Organ Wgts, Mean ± S.E.: Thymus Gland” value is reported as 43.5±4.9 Mg. Further, the “Weights of the endocrine organs (in words)” value in data set [3] is “not significantly altered”. Moreover, the “Progestational activity, Clauberg assay” value in data set [5] (32 mg/kg applied topically) is reported as “minimal progestational activity”. Also, in data set [5] (administered intramuscularly), the “Progestational activity relative to that of progesterone” value is reported as “about one-fortieth”. Besides, the LD50 (usually the dose expected to kill half of the subjects tested) in data set [6] (setting [16]) is over 5000 mg/kg. Moreover, in data set [6] (setting [17]), the LD50 was over 1000 mg/kg. Also, in [7], the Flank organ development entry is recorded as “caused a regression in flank organ development”; the Seminal vesicle weights entry is recorded as “not reduced”; the “Size and lipid content of the sebaceous glands” value was “significantly reduced”. For the same molecule, the “Inhibition of conversion of testosterone to dihydrotestosterone by steroid 5α-reductase” value in the data set with steroid 5α-reductase [8] (concentration one-hundredth molar) is 100%. Besides, the “Inhibition of conversion of testosterone to dihydrotestosterone by steroid 5α-reductase” value with steroid 5α-reductase [8] (concentration one-thousandth molar) came to 53%. In addition, the “Serum testosterone levels compared with untreated controls” value in data set [9] was “unchanged”. In data set [1] (setting [18]), the “Flank Organ Cholest., Mean ± S.E.” value turned out to be 162 ± 5.8 µg; the “Flank Organ Diameter, Mean ± S.E.” value was 3.71±0.22 mm; the “Flank Organ Wet Wgt, Mean ± S.E.” value was found to be 28.5 ± 1.0 mg. In [1] (setting [19]), the “Flank Organ Cholest., Mean ± S.E.” value turned out to be 163 ± 9.4 µg; the “Flank Organ Diameter, Mean ± S.E.” value is given as 3.91±0.14 mm; the “Flank Organ Wet Wgt, Mean ± S.E.” value was found to be 27.5 ± 1.3 mg. Further, in data set [1] (castrated hamsters), the “Inhibition of testosterone-stimulated increase in the cholesterol contact of the flank organs (in words)” value is given as “effective as inhibitors”; the “Reduction of testosterone-stimulated increase in flank organ diameter (in words)” value is on record as “effective”; the “Suppression of flank organ development, degree of pigmentation (in words)” value is reported as “effective in suppressing flank organ development”; the “Wet weight of the flank organs (in words)” value is reported as “reduced the wet weight of the flank organs below that recorded for the vehicle control”. For the same molecule, in [1] (1 μg TP + 100 μg test compound), the “Flank Organ Develop. (Med. Score)” value came out at 3.5. Besides, in data set [1] (1 μg TP + 200 μg test compound), the “Flank Organ Develop. (Med. Score)” value was determined as 3.0. The “Flank Organ Develop. (Med. Score)” value in [1] (1 μg TP + 200 μg test compound, listed as Compound I) was determined as 3. For the same molecule, the LD50 in data set [10] (setting [16]) is over 5000 mg/kg. In data set [10] (setting [17]), the LD50 was over 1000 mg/kg.
With `CC(=O)[C@H]1CC[C@H]2[C@@H]3CCC4=CC(=O)CC[C@]4(C)[C@H]3CC[C@]12C` [progesterone, reference compound], the “Progestational activity, Clauberg assay” value in data set [5] (2 mg/kg applied topically) is reported as “maximal response”.
`C[C@]12CCC(=O)C=C1CC[C@@H]1[C@@H]2CC[C@@]2(C)[C@H]1CC[C@]2(C)O` [Methyltestosterone]: the Systemic androgenic activity entry in [11] is “have systemic androgenic activity”.
As to `CCCC[C@]1(O)CC[C@H]2[C@@H]3CCC4=CC(=O)CC[C@]4(C)[C@H]3CC[C@@]21C` [Compd. II, 17α-(n-butyl)androst-4-en-17β -ol-3-one], in data set [3] (setting [15]), the “Endocr. Organ Wgts, Mean ± S.E.: Adrenal Gland” value is on record as 12.4±0.53 Mg; the “Endocr. Organ Wgts, Mean ± S.E.: Seminal Vesicle” value was 34.0±4.1 Mg; the “Endocr. Organ Wgts, Mean ± S.E.: Thymus Gland” value is 60.7±7.6 Mg. Also, the “Weights of the endocrine organs (in words)” value in data set [3] is “not significantly altered”. In data set [1] (setting [19]), the “Flank Organ Cholest., Mean ± S.E.” value is 151 ± 8.9 µg; the “Flank Organ Diameter, Mean ± S.E.” value was determined as 3.24±0.13 mm; the “Flank Organ Wet Wgt, Mean ± S.E.” value was 21.6 ± 1.2 mg. In [1] (castrated hamsters), the “Inhibition of testosterone-stimulated increase in the cholesterol contact of the flank organs (in words)” value is “effective as inhibitors”; the “Reduction of testosterone-stimulated increase in flank organ diameter (in words)” value is recorded as “effective”; the “Suppression of flank organ development, degree of pigmentation (in words)” value was “effective in suppressing flank organ development”; the “Wet weight of the flank organs (in words)” value is listed as “reduced the wet weight of the flank organs below that recorded for the vehicle control”. In data set [1] (1 μg TP + 200 μg test compound), the “Flank Organ Develop. (Med. Score)” value amounted to 1.0. Also, the “Flank Organ Develop. (Med. Score)” value in data set [1] (1 μg TP + 200 μg test compound, listed as Compound II) is given as 1.
Take `CC[C@]1(O)CC[C@H]2[C@@H]3CCC4=CC(=O)CC[C@]4(C)[C@H]3CC[C@@]21C` [17α-ethylandrost-4-en-17β-ol-3-one]: the Systemic androgenic activity entry in [11] is “have systemic androgenic activity”.
For the molecule `C[C@]12CC[C@H]3[C@@H](CCC4=CC(=O)CC[C@@]43C)[C@@H]1CC[C@@H]2C(=O)O` [3-oxoandrost-4-ene-17β-carboxylic acid], in the data set on steroid 5α-reductase [2] (castrated hamsters), the “Block of the action of dihydrotestosterone on flank organ responses” value is “did not, however, block”. Besides, the “Anti-androgenic activity by inhibitory effects on steroid 5α-reductase activity” value with steroid 5α-reductase [2] is recorded as “exhibit anti-androgenic activity”.

The values above are taken from patent US4039669A, “Composition for topical application and use thereof” (Sterling Drug Inc., priority 1975, dated 1977).
